# Literature values in patent publication US20170216178A1, “Cosmetic or Dermatological Composition Containing Retinaldehyde and DNA” (GALEPHAR PHARMACEUTICAL RESEARCH, INC., priority 2016, published 2017).
# Assays:
# P. acnes = details: against P. acnes
# skin cancer = details: mice
# comedones = details: topical; compared with retinoic acid (tretinoin); rhino mouse model
# skin = details: topical; compared with retinoids
smiles,measurement,setting,value
O=C(O)CCCCCCCC(=O)O [azelaic acid],intra-follicular antibacterial activity,P. acnes,showed an intra-follicular antibacterial activity
O=C(OOC(=O)c1ccccc1)c1ccccc1 [benzoyl peroxide],potential for the development of skin cancer,skin cancer,may increase the potential for the development of skin cancer
CC1=C(/C=C/C(C)=C/C=C/C(C)=C/C=O)C(C)(C)CCC1 [retinaldehyde],comedolytic action,comedones,identical to that of retinoic acid
same,skin tolerance,skin,significantly higher skin tolerance
